Source: PubChem BioAssay AID248 (DTP/NCI, 2004)
Values joined by “and” are separate entries in the source; they are usually repeats but may differ in a detail not shown here. Equal values may be shown once. Inconclusive results and toxic doses are left out.

System: L1210 leukemia ip in BDF1 mice, survival T/C
Test: NCI In Vivo Anticancer Drug Screen. Data for tumor model L1210 Leukemia (intraperitoneal) in B6D2F1 (BDF1) mice
Details: endpoint: mean survival time, higher = longer survival
In short: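 Read-out is survival time, reported as the treated-group measurement over the vehicle-control measurement.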

[1] = dose: 400.0 mg/kg/injection, schedule: Q04DX002 (ip), vehicle: saline with Tween-80
[2] = dose: 100.0 mg/kg/injection, schedule: Q04DX003 (ip), vehicle: saline with Tween-80
[3] = dose: 200.0 mg/kg/injection, schedule: Q04DX003 (ip), vehicle: saline with Tween-80
[4] = dose: 400.0 mg/kg/injection, schedule: Q04DX003 (ip), vehicle: saline with Tween-80
[5] = dose: 100.0 mg/kg/injection, schedule: Q01DX001 (ip), vehicle: saline
[6] = dose: 200.0 mg/kg/injection, schedule: Q01DX001 (ip), vehicle: saline
[7] = dose: 400.0 mg/kg/injection, schedule: Q01DX001 (ip), vehicle: saline
[8] = dose: 50.0 mg/kg/injection, schedule: Q01DX001 (ip), vehicle: saline
[9] = dose: 100.0 mg/kg/injection, schedule: Q01DX009 (ip), vehicle: Klucel (hydroxypropylcellulose) (HPC)
[10] = dose: 100.0 mg/kg/injection, schedule: Q04DX003 (ip), vehicle: Klucel (hydroxypropylcellulose) (HPC)
[11] = dose: 200.0 mg/kg/injection, schedule: Q01DX009 (ip), vehicle: Klucel (hydroxypropylcellulose) (HPC)
[12] = dose: 200.0 mg/kg/injection, schedule: Q04DX003 (ip), vehicle: Klucel (hydroxypropylcellulose) (HPC)
[13] = dose: 400.0 mg/kg/injection, schedule: Q04DX003 (ip), vehicle: Klucel (hydroxypropylcellulose) (HPC)
[14] = dose: 400.0 mg/kg/injection, schedule: Q01DX009 (ip), vehicle: Klucel (hydroxypropylcellulose) (HPC)
[15] = dose: 50.0 mg/kg/injection, schedule: Q01DX009 (ip), vehicle: saline with Tween-80
[16] = dose: 100.0 mg/kg/injection, schedule: Q01DX009 (ip), vehicle: saline with Tween-80
[17] = dose: 200.0 mg/kg/injection, schedule: Q01DX009 (ip), vehicle: saline with Tween-80
[18] = dose: 400.0 mg/kg/injection, schedule: Q01DX009 (ip), vehicle: saline with Tween-80
[19] = dose: 50.0 mg/kg/injection, schedule: Q01DX009 (ip), vehicle: saline
[20] = dose: 100.0 mg/kg/injection, schedule: Q01DX009 (ip), vehicle: saline
[21] = dose: 100.0 mg/kg/injection, schedule: Q04DX003 (ip), vehicle: saline
[22] = dose: 200.0 mg/kg/injection, schedule: Q01DX009 (ip), vehicle: saline
[23] = dose: 200.0 mg/kg/injection, schedule: Q04DX003 (ip), vehicle: saline
[24] = dose: 400.0 mg/kg/injection, schedule: Q04DX003 (ip), vehicle: saline

In the case of `Cc1cn(CC(=O)c2c[nH]c3ccccc23)c(=O)[nH]c1=O`, the T/C (dose: 100.0 mg/kg/injection, schedule: Q04DX002 (ip), vehicle: saline with Tween-80) is reported as 101 % of control, the T/C (dose: 200.0 mg/kg/injection, schedule: Q04DX002 (ip), vehicle: saline with Tween-80) is reported as 101 % of control and the T/C [1] is reported as 93 % of control.
`CC(=O)C(C(N)=O)C(c1ccc2c(c1)OCO2)C(C(C)=O)C(=O)NCc1ccccc1` (configuration not stated) was tested, and the T/C (dose: 25.6 mg/kg/injection, schedule: Q04DX002 (ip), vehicle: saline with Tween-80) was 98 % of control, the T/C (dose: 64.0 mg/kg/injection, schedule: Q04DX002 (ip), vehicle: saline with Tween-80) was 95 % of control and the T/C [2] was 87 % of control. The T/C (dose: 160.0 mg/kg/injection, schedule: Q04DX002 (ip), vehicle: saline with Tween-80) was 91 % of control, the T/C [3] was 90 % of control and the T/C [1] was 98 % of control. For the same molecule, the T/C [4] was 91 % of control.
In the case of `Cc1cc(=O)[nH]c2oc(-c3ccccc3)cc(=O)c12`, the T/C [5] is reported as 101 % of control, the T/C [6] is reported as 103 % of control and the T/C [7] is reported as 100 % of control.
`NNc1ncccc1[N+](=O)[O-]` was tested, and the T/C [8] was 102 % of control, the T/C [5] was 108 % of control and the T/C [6] was 96 % of control.
In the case of `COC1OC(CBr)C(OC(C)=O)C(OC(C)=O)C1OS(C)(=O)=O` (configuration not stated), the T/C (dose: 100.0 mg/kg/injection, schedule: Q04DX002 (ip), vehicle: Klucel (hydroxypropylcellulose) (HPC)) is reported as 100 % of control, the T/C (dose: 200.0 mg/kg/injection, schedule: Q04DX002 (ip), vehicle: Klucel (hydroxypropylcellulose) (HPC)) is reported as 97 % of control and the T/C (dose: 400.0 mg/kg/injection, schedule: Q04DX002 (ip), vehicle: Klucel (hydroxypropylcellulose) (HPC)) is reported as 103 % of control.
`O=S(=O)(Nc1c(Cl)c(Cl)c(Cl)c(Cl)c1NS(=O)(=O)c1ccccc1)c1ccccc1` was tested, and the T/C [9] was 101 % of control, the T/C [10] was 94 % of control and the T/C [11] was 92 % of control. For the same molecule, the T/C [12] was 100 % of control and the T/C [13] was 95 % of control.
In the case of `CCCCCCCCOc1ccc(C)cc1`, the T/C [9] is reported as 107 % of control, the T/C [11] is reported as 94 % of control and the T/C [14] is reported as 97 % of control.
In the case of `CC/C(=N\NC(N)=O)C(OC)OC`, the T/C (dose: 100.0 mg/kg/injection, schedule: Q01DX001 (ip), vehicle: carboxymethylcellulose (CMC)) is reported as 108 % of control, the T/C (dose: 200.0 mg/kg/injection, schedule: Q01DX001 (ip), vehicle: carboxymethylcellulose (CMC)) is reported as 86 % of control and the T/C (dose: 400.0 mg/kg/injection, schedule: Q01DX001 (ip), vehicle: carboxymethylcellulose (CMC)) is reported as 92 % of control.
`CC(=O)COC(=O)c1ccc(N(C)CC(C)=O)cc1` was tested, and the T/C [10] was 95 % of control, the T/C [12] was 86 % of control and the T/C [13] was 93 % of control.
With `CN(C)CSc1nc2ccccc2s1` the T/C [15] was 93 % of control, the T/C [16] was 89 % of control and the T/C [17] was 93 % of control.
For `CCN(CC)P(=O)(N1CC1)N1CC1`, the T/C (dose: 0.75 mg/kg/injection, schedule: Q01DX Z (ip), vehicle: saline) was 109 % of control, the T/C (dose: 1.15 mg/kg/injection, schedule: Q01DX Z (ip), vehicle: saline) was 121 % of control and the T/C (dose: 2.0 mg/kg/injection, schedule: Q01DX Z (ip), vehicle: saline) was 106 % of control. For the same molecule, the T/C (dose: 2.6 mg/kg/injection, schedule: Q01DX Z (ip), vehicle: saline) was 124 % of control and 215 % of control, the T/C (dose: 4.0 mg/kg/injection, schedule: Q01DX Z (ip), vehicle: saline) was 151 % of control and the T/C (dose: 9.0 mg/kg/injection, schedule: Q01DX Z (ip), vehicle: saline) was 213 % of control. For the same molecule, the T/C (dose: 14.0 mg/kg/injection, schedule: Q01DX Z (ip), vehicle: saline) was 88 % of control and 91 % of control.
For `O=C(Nc1cccc2ccccc12)O/N=C/c1ccccn1`, the T/C [15] was 94 % of control, the T/C [16] was 86 % of control and 87 % of control and the T/C [2] was 87 % of control. The T/C [17] was 94 % of control, the T/C [3] was 90 % of control and the T/C [18] was 107 % of control. The T/C [4] was 95 % of control.
For `Cc1c(Cl)cccc1NC(=O)NCCC(C)C`, the T/C [16] was 86 % of control, the T/C [2] was 93 % of control and the T/C [3] was 91 % of control. For the same molecule, the T/C [18] was 89 % of control and the T/C [4] was 95 % of control.
With `CSc1c(Cl)c(C(Cl)(Cl)Cl)nc2ccccc12` the T/C (dose: 12.5 mg/kg/injection, schedule: Q01DX009 (ip), vehicle: saline with Tween-80) was 93 % of control, the T/C (dose: 25.0 mg/kg/injection, schedule: Q01DX009 (ip), vehicle: saline with Tween-80) was 93 % of control and the T/C [15] was 103 % of control and 104 % of control.
`COC(=O)C(Br)C(=O)OC` was tested, and the T/C (dose: 12.5 mg/kg/injection, schedule: Q04DX002 (ip), vehicle: saline with Tween-80) was 97 % of control and the T/C (dose: 25.0 mg/kg/injection, schedule: Q04DX002 (ip), vehicle: saline with Tween-80) was 97 % of control.
In the case of `O=C(Nc1ccc(-c2nc3ccccc3[nH]2)cc1)c1ccc(C(=O)Nc2ccc(-c3nc4ccccc4[nH]3)cc2)cc1`, the T/C (dose: 15.0 mg/kg/injection, schedule: Q01DX Z (ip), vehicle: carboxymethylcellulose (CMC)) is reported as 97 % of control, the T/C (dose: 30.0 mg/kg/injection, schedule: Q01DX Z (ip), vehicle: carboxymethylcellulose (CMC)) is reported as 97 % of control and the T/C (dose: 60.0 mg/kg/injection, schedule: Q01DX Z (ip), vehicle: carboxymethylcellulose (CMC)) is reported as 94 % of control. The T/C (dose: 120.0 mg/kg/injection, schedule: Q01DX Z (ip), vehicle: carboxymethylcellulose (CMC)) was 100 % of control.
With `Nc1ccc2[nH]c3ccccc3c2c1` the T/C [9] was 95 % of control, the T/C [10] was 104 % of control and the T/C [11] was 95 % of control. The T/C [12] was 91 % of control, the T/C [14] was 92 % of control and the T/C [13] was 94 % of control.
In the case of `C/C(=C\CN1C(=O)CCCC1=O)CCC(=O)O`, the T/C (dose: 100.0 mg/kg/injection, schedule: Q01DX009 (ip), vehicle: other) is reported as 90 % of control, the T/C (dose: 100.0 mg/kg/injection, schedule: Q04DX003 (ip), vehicle: other) is reported as 102 % of control and the T/C (dose: 200.0 mg/kg/injection, schedule: Q01DX009 (ip), vehicle: other) is reported as 98 % of control. For the same molecule, the T/C (dose: 200.0 mg/kg/injection, schedule: Q04DX003 (ip), vehicle: other) was 91 % of control, the T/C (dose: 400.0 mg/kg/injection, schedule: Q01DX009 (ip), vehicle: other) was 93 % of control and the T/C (dose: 400.0 mg/kg/injection, schedule: Q04DX003 (ip), vehicle: other) was 93 % of control.
In the case of `CCC(C(=O)O)c1ccccc1` (configuration not stated), the T/C [19] is reported as 93 % of control, the T/C [20] is reported as 97 % of control and the T/C [21] is reported as 89 % of control. The T/C [22] was 90 % of control, the T/C [23] was 90 % of control and the T/C [24] was 95 % of control.
In the case of `CCOC(=O)CC(C(=O)OCC)N1CCCCC1` (configuration not stated), the T/C [5] is reported as 92 % of control, the T/C (dose: 100.0 mg/kg/injection, schedule: Q01DX009 (ip), vehicle: alcohol) is reported as 95 % of control and the T/C (dose: 100.0 mg/kg/injection, schedule: Q04DX003 (ip), vehicle: alcohol) is reported as 100 % of control. The T/C [6] was 91 % of control, the T/C (dose: 200.0 mg/kg/injection, schedule: Q01DX009 (ip), vehicle: alcohol) was 95 % of control and the T/C (dose: 200.0 mg/kg/injection, schedule: Q04DX003 (ip), vehicle: alcohol) was 95 % of control. The T/C [7] was 94 % of control, the T/C (dose: 400.0 mg/kg/injection, schedule: Q01DX009 (ip), vehicle: alcohol) was 105 % of control and the T/C (dose: 400.0 mg/kg/injection, schedule: Q04DX003 (ip), vehicle: alcohol) was 97 % of control.
For `CC(C)SC=O`, the T/C [19] was 94 % of control, the T/C [20] was 93 % of control and the T/C [21] was 100 % of control. For the same molecule, the T/C [22] was 93 % of control, the T/C [23] was 105 % of control and the T/C (dose: 400.0 mg/kg/injection, schedule: Q01DX009 (ip), vehicle: saline) was 89 % of control. The T/C [24] was 100 % of control.
For `CCOC(=O)c1c[nH]c(=O)c([N+](=O)[O-])c1O`, the T/C [16] was 98 % of control, the T/C [2] was 96 % of control and the T/C [17] was 109 % of control. The T/C [3] was 98 % of control, the T/C [18] was 92 % of control and the T/C [4] was 90 % of control.
`COc1ccc(N=CN(C)C)cc1` was tested, and the T/C [8] was 100 % of control and the T/C [5] was 96 % of control.
In the case of `COc1ccccc1NC(=O)Nc1cc(C)ccc1C`, the T/C [9] is reported as 88 % of control, the T/C [10] is reported as 90 % of control and the T/C [11] is reported as 92 % of control. For the same molecule, the T/C [12] was 95 % of control, the T/C [14] was 88 % of control and the T/C [13] was 88 % of control.
